Drawing on patent publication EP1115693B9, “SUBSTITUTED POLYCYCLIC ARYL AND HETEROARYL $i([sequence])-HETEROALKYLAMINES USEFUL FOR INHIBITING CHOLESTERYL ESTER [sequence] PROTEIN ACTIVITY” (Monsanto Company, priority 1998, dated 2000), this text covers IC50 for 53 compounds.

The test concerns the target T1, CETP (Homo sapiens, UniProt P11597).
T1 sequence (P11597 18-493): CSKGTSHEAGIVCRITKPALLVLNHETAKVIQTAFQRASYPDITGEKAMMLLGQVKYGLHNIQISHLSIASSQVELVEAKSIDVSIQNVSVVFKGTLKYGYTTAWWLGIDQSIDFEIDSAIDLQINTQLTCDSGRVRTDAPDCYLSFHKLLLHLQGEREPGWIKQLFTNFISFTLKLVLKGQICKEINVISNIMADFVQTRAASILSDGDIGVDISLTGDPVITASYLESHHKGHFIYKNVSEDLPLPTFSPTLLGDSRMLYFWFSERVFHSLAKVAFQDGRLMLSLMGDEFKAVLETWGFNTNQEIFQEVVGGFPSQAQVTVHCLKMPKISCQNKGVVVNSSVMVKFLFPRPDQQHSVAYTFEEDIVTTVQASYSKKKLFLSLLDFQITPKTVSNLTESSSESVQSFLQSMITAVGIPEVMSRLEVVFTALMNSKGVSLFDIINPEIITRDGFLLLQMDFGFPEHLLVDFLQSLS
The experiment in a line: Assay of CETP inhibition using purified components (reconstituted buffer assay): transfer of [3H]CE from HDL to LDL. In kind it is biochemical. Set-up: made in house; host or cells: CHO cells (serum-free conditioned medium). The settings on record: 2 hours at 37°C. As for the experimental part: ASSAY OF CETP INHIBITION USING PURIFIED COMPONENTS (RECONSTITUTED BUFFER ASSAY)
The ability of compounds to inhibit CETP activity was assessed using an in vitro assay that measured the rate of transfer of radiolabeled cholesteryl ester ([^3H]CE) from HDL donor particles to LDL acceptor particles. Details of the assay are provided by Glenn, K. C. et al. (Glenn and Melton, "Quantification of Cholesteryl Ester Transfer Protein (CETP): A) CETP Activity and B) Immunochemical Assay of CETP Protein," Meth. Enzymol., 263, 339-351 (1996)). Human recombinant CETP can be obtained from the serum-free conditioned medium of CHO cells transfected with a cDNA for CETP and purified as described by Wang, S. et al. (J. Biol. Chem. 267, 17487-17490 (1992)). To measure CETP activity, [^3H]CE-labeled-HDL, LDL, CETP and assay buffer (50 mM tris(hydroxymethyl)aminomethane, pH 7.4; 150 mM sodium chloride; 2 mM ethylenediamine-tetraacetic acid (EDTA); 1% bovine serum albumin) were incubated in a final volume of 200 µL, for 2 hours at 37°C in 96 well plates. […] The inhibitors were then diluted 1:1 with CETP in assay buffer, and then 25 µL of that solution was mixed with 175 µL of lipoprotein pool for assay. Following incubation, LDL was differentially precipitated by the addition of 50 µL of 1% (w/v) dextran sulfate/0.5 M magnesium chloride, mixed by vortex, and incubated at room temperature for 10 minutes. A potion of the solution (200 µL) was transferred to a filter plate (Millipore). After filtration, the radioactivity present in the precipitated LDL was measured by liquid scintillation counting.
This value was defined as the IC50.
In the case of `Fc1ccc(Oc2cccc(NCc3cccc(OC(F)(F)C(F)F)c3)c2)cc1` [634C], the IC50 (usually the concentration needed to halve the response being measured) was greater than 100 µM. The figure for `O=C(O)c1ccc(COc2cccc(N(Cc3cccc(OC(F)(F)C(F)F)c3)CC(O)C(F)(F)F)c2)cc1` (centres unmarked) [EX-435B, 4-[[3-[[[3-(1,1,2,2-tetrafluoroethoxy)phenyl]methyl](3,3,3-trifluoro-2-hydroxypropyl)amino]phenoxy]methyl]benzoic acid] is greater than 50 µM; for `COc1cccc(N(Cc2cccc(C)c2)CC(O)C(F)(F)F)c1` (centres unmarked) [Example 3] it is 60 µM. The result for `OCc1cccc(CN(CC(O)C(F)(F)F)c2cccc(Oc3ccccc3)c2)c1` (centres unmarked) [Example 618, 3-[[(3-phenoxyphenyl)(3,3,3-trifluoro-2-hydroxypropyl)amino]methyl]benzenemethanol] reads 100 µM; that for `O=C(OC(CN(C(=O)c1cccc(C(F)(F)F)c1)c1cccc(F)c1)C(F)(F)F)c1cccc(C(F)(F)F)c1` (centres unmarked) [Example 662, 2,2,2-trifluoro-1-[[(3-fluorophenyl)[3-(trifluoromethyl)benzoyl]amino]-methyl]ethyl 3-trifluoromethylbenzoate], 50 µM; that for `O=C(c1cccc(C(F)(F)F)c1)N(CC(O)C(F)(F)F)c1cccc(F)c1` (centres unmarked) [Example 663, N-(3-fluorophenyl)-N-(3,3,3-trifluoro-2-hydroxypropyl)-3-(trifluoromethyl)benzamide], 100 µM.

With `OC(CN(Cc1ccccc1)c1ccccc1)C(F)(F)F` (centres unmarked) [compound 2], 100 µM corresponded to half-maximal inhibition (IC50). The figure for `OC(CN(Cc1ccccc1)c1cccc(F)c1)C(F)(F)F` (centres unmarked) [compound 10] is greater than 100 µM.

In the case of `OC(CN(Cc1cccc(F)c1)c1cccc(F)c1)C(F)(F)F` (centres unmarked) [compound 18], 60 µM corresponded to half-maximal inhibition (IC50). `Cc1ccc(N(Cc2cccc(C(F)(F)F)c2)CC(O)C(F)(F)F)cc1` (centres unmarked) [compound 20] displayed an IC50 greater than 100 µM. In turn, `Cc1ccccc1N(Cc1cccc(C(F)(F)F)c1)CC(O)C(F)(F)F` (centres unmarked) [compound 21] yielded an IC50 greater than 100 µM. The result for `OC(CN(Cc1ccc(C(F)(F)F)cc1)c1ccc(F)c(F)c1)C(F)(F)F` (centres unmarked) [compound 22] reads 50 µM. `Cc1ccc(N(Cc2cccc(F)c2)CC(O)C(F)(F)F)cc1` (centres unmarked) [compound 32] had an IC50 greater than 100 µM. The result for `Cc1ccc(CN(CC(O)C(F)(F)F)c2cccc(Cl)c2)cc1` (centres unmarked) [compound 34] reads 50 µM; that for `Cc1ccc(CN(CC(O)C(F)(F)F)c2cccc(C(F)(F)F)c2)cc1` (centres unmarked) [compound 45], 100 µM; that for `Cc1cccc(CN(CC(O)C(F)(F)F)c2cccc(F)c2)c1` (centres unmarked) [compound 49], greater than 100 µM. The figure for `OC(CN(Cc1cccc(Oc2ccc(Cl)cc2)c1)c1cccc(OC(F)(F)F)c1)C(F)(F)F` (centres unmarked) [compound 93] is 50 µM. Compound `OC(CN(Cc1cccc(Oc2cc(Cl)cc(Cl)c2)c1)c1cccc(OC(F)(F)F)c1)C(F)(F)F` (centres unmarked) [compound 96] showed an IC50 of 50 µM. The result for `CCCCOc1ccc(CN(CC(O)C(F)(F)F)c2cccc(OC(F)(F)F)c2)cc1` (centres unmarked) [compound 120] reads 50 µM; that for `OC(CN(Cc1ccc(-c2ccccc2)cc1)c1ccc(C(F)(F)F)cc1)C(F)(F)F` (centres unmarked) [compound 144], 100 µM.

With `CCCCOC(=O)c1ccc(N(Cc2cccc(OC(F)(F)F)c2)CC(O)C(F)(F)F)cc1` (centres unmarked) [compound 164], the IC50 is greater than 100 µM. The figure for `OC(CN(Cc1ccccc1)c1cccc(Oc2ccccc2)c1)C(F)(F)F` (centres unmarked) [compound 217] is 32 µM; for `OC(CN(Cc1cccc(OC(F)(F)C(F)F)c1)c1cccc(Oc2cccc(C(F)(F)F)c2F)c1)C(F)(F)F` (centres unmarked) [compound 227] it is 0.13 µM; for `OC(CN(Cc1cccc(OC(F)(F)C(F)F)c1)c1cccc(Oc2cccc(F)c2)c1)C(F)(F)F` (centres unmarked) [compound 240] it is 0.27 µM. On to `Cc1cc(Oc2cccc(N(Cc3cccc(OC(F)(F)C(F)F)c3)CC(O)C(F)(F)F)c2)ccc1F` (centres unmarked) [compound 242], for which the IC50 was determined as 0.076 µM. The result for `OC(CN(Cc1cccc(OC(F)(F)C(F)F)c1)c1cccc(Oc2ccc(S)cc2)c1)C(F)(F)F` (centres unmarked) [compound 263] reads greater than 50 µM. The figure for `COC(=O)c1cccc(CN(CC(O)C(F)(F)F)c2cccc(OC(F)(F)F)c2)c1` (centres unmarked) [compound 325] is greater than 100 µM; for `OC(CN(Cc1ccc(-c2ccccc2)cc1)c1cccc(OC(F)(F)F)c1)C(F)(F)F` (centres unmarked) [compound 333] it is 100 µM; for `COc1ccccc1CC(=O)N(CC(O)C(F)(F)F)c1cccc(OC(F)(F)F)c1` (centres unmarked) [compound 339] it is greater than 100 µM. In the case of `COc1ccc(OC)c(C(=O)CN(CC(O)C(F)(F)F)c2cccc(OC(F)(F)F)c2)c1` (centres unmarked) [compound 340], the IC50 was 100 µM. With `O=C(c1c(F)c(F)c(F)c(F)c1F)N(CC(O)C(F)(F)F)c1cccc(OC(F)(F)F)c1` (centres unmarked) [compound 343], the 50% inhibitory concentration (IC50) was 100 µM. The figure for `COc1cc(CN(CC(O)C(F)(F)F)c2cccc(OC(F)(F)F)c2)cc(OC)c1` (centres unmarked) [compound 350] is 50 µM; for `O=C(C=Cc1ccccc1)N(CC(O)C(F)(F)F)c1cccc(OC(F)(F)F)c1` (centres unmarked) [compound 351] it is 50 µM; for `O=C(Cc1ccccc1Oc1ccccc1)N(CC(O)C(F)(F)F)c1cccc(OC(F)(F)F)c1` (centres unmarked) [compound 361] it is greater than 100 µM. The figure for `OC(CN(Cc1cccc(OC(F)(F)C(F)F)c1)c1cccc(OCc2cccc(SC(F)(F)F)c2)c1)C(F)(F)F` (centres unmarked) [compound 410] is 0.19 µM; for `OC(CN(Cc1cccc(OC(F)(F)C(F)F)c1)c1cccc(OCc2cc(F)cc(C(F)(F)F)c2)c1)C(F)(F)F` (centres unmarked) [compound 411] it is 0.25 µM. The result for `CC(C)(C)c1ccc(COc2cccc(N(Cc3cccc(OC(F)(F)C(F)F)c3)CC(O)C(F)(F)F)c2)cc1` (centres unmarked) [compound 418] reads 2.1 µM. The compound `OC(CN(Cc1cccc(OC(F)(F)C(F)F)c1)c1cccc(OCc2ccccn2)c1)C(F)(F)F` (centres unmarked) [compound 432] displayed an IC50 of 1.7 µM.

As for `OC(CN(Cc1cccc(OC(F)(F)C(F)F)c1)c1cccc(Oc2nccs2)c1)C(F)(F)F` (centres unmarked) [compound 448], the IC50 came to 4.3 µM.

In turn, `O=C(c1cccc(N(Cc2cccc(OC(F)(F)C(F)F)c2)CC(O)C(F)(F)F)c1)N1CCOCC1` (centres unmarked) [compound 471] returned an IC50 of 50 µM. The figure for `OC(CN(Cc1cccc(OC(F)(F)C(F)F)c1)c1cccc(OCCN2CCCC2)c1)C(F)(F)F` (centres unmarked) [compound 498] is greater than 50 µM.

In turn, `OCCCOc1cccc(N(Cc2cccc(OC(F)(F)C(F)F)c2)CC(O)C(F)(F)F)c1` (centres unmarked) [compound 504] showed an IC50 of 14 µM. `CC(C)(C)COc1cccc(N(Cc2cccc(OC(F)(F)C(F)F)c2)CC(O)C(F)(F)F)c1` (centres unmarked) [compound 506]: the IC50 is 0.97 µM. For `OC(CN(Cc1cccc(OC(F)(F)C(F)F)c1)c1cccc(OC2CCCC2)c1)C(F)(F)F` (centres unmarked) [compound 509], half-maximal inhibition (IC50) was put at 0.42 µM. Compound `OC(CN(Cc1cccc(OC(F)(F)C(F)F)c1)c1cccc(Cc2ccccc2)c1)C(F)(F)F` (centres unmarked) [compound 515] came in with an IC50 of 1.8 µM. The figure for `OC(CN(Cc1cccc(OC(F)(F)C(F)F)c1)c1cccc(-c2ccccc2)c1)C(F)(F)F` (centres unmarked) [compound 564] is 2.5 µM; for `Oc1cccc(CN(CC(O)C(F)(F)F)c2cccc(Oc3ccc(F)cc3)c2)c1` (centres unmarked) [compound 635] it is 80 µM; for `OC(CN(Cc1cccc(SC(F)(F)F)c1)c1cccc(Oc2ccc(F)cc2)c1)C(F)(F)F` (centres unmarked) [compound 636] it is 0.39 µM. The result for `OC(CN(Cc1ccc(C(F)(F)F)cc1)c1cccc(Oc2ccc(F)cc2)c1)C(F)(F)F` (centres unmarked) [compound 640] reads 4.3 µM. The figure for `OC(CN(Cc1cccc(C(F)(F)F)c1)c1cc(Oc2ccc(F)cc2)cc(C(F)(F)F)c1)C(F)(F)F` (centres unmarked) [compound 641] is 11 µM.

The compound `OC(CN(Cc1cccc(OC(F)(F)F)c1)c1cc(Oc2ccc(F)cc2)cc(C(F)(F)F)c1)C(F)(F)F` (centres unmarked) [compound 643] returned an IC50 of 2.1 µM. `CCOc1cccc(CN(CC(O)C(F)(F)F)c2cccc(Oc3ccc(F)cc3)c2)c1` (centres unmarked) [compound 646] came in with an IC50 of 0.77 µM. `CCCOc1cccc(CN(CC(O)C(F)(F)F)c2cccc(Oc3ccc(F)cc3)c2)c1` (centres unmarked) [compound 648] yielded an IC50 of 0.83 µM.
